Results from patent US11649228B2, “Zinc indicators for cellular imaging” (The Board of Regents of the University of Texas System, priority 2018, dated 2023).
Where two headings read alike, the source gives them in different places.

Tests used:
[1] = Table 2, previously reported sensors, cited from earlier work; for Kd: read-out: Kd(Zn^2+)
[2] = Metal ion selectivity of fluorescence response; assay type: physicochemical; conditions: 1 μM sensor, 10 μM TPEN; against Na^+, K^+, Ca^2+, Mg^2+, Fe^2+, Ni^2+, Co^2+, Cu^2+, Mn^2+
Procedure: To study the metal selectivity, the fluorescence of ZIGIR-1 (1 μM) or ZIGIR-2 (1 μM) was measured in the presence of 10 μM TPEN and an excess of metal ion including 1 mM KCl, 1 mM NaCl, 1 mM CaSO4, 1 mM MgSO4, 15 μM MnSO4, 15 μM FeSO4, 15 μM NiSO4, 15 μM CoCl2, 15 μM CuSO4, 15 μM CdSO4 or 15 μM ZnSO4. The emission intensity was normalized to that of 15 μM ZnSO4 (100%).

[3] = Zn^2+ titration of ZIGIRs by fluorescence emission (Hill plot); assay type: binding
Procedure: (§1) UV-Vis spectra were recorded in a 1-cm path quartz cell on a Shimadzu 2401 PC spectrometer. Fluorescence excitation and emission spectra were recorded on a Fluorolog 3 spectrometer (Jobin-Yvon Horiba, Edison, N.J.). Zinc titration was performed by adding ZIGIRs (0.5 μM final concentration) to buffered Zn^2+ solutions containing 100 mM HEPES (pH 7.4). Nitrilotriacetic acid (NTA, 10 mM) and varying concentrations of ZnSO4 (0-9 mM) were mixed to reach free Zn^2+ concentrations between 0.1 nM and 40 nM (Li et al., 2011). Zn^2+ concentrations above 40 nM were controlled by iminodiacetate (IDA, 10 mM) and varying amounts of ZnSO4 (0-9.7 mM) in 100 mM HEPES (pH 7.4; Sasaki et al., 2011). To determine Zn^2+ binding dissociation constants (Kd(Zn^2+)), the Zn^2+ titration data were fitted to the least square exponential equation (Prism 7). Fluorescence quantum yields of ZIGIRs at pH 7.5 were determined using rhodamine 6G as the reference (Φfl=0.94 in MeOH; Magde et al., 2002). An example in shown FIGS. 11A0B. To examine the pH sensitivity of ZIGIRs, the fluorescence emission spectra was recorded from pH 3-9.4 in either nominally Zn^2+-free solutions containing 5 mM iminodiacetate or in 25 μM ZnSO4 solutions. The pH was controlled with 10 mM pH buffers including chloroacetic acid (pH 3.1), acetate (pH 4.1 and 5.0), 2-morpholinoethanesulfonic acid (MES, pH 6.14), HEPES (pH 7.5) and N-cyclohexyl-2-aminoethanesulfonic acid (CHES, pH 9.4).

[4] = Photochemical characterization of ZIGIRs in vitro (absorption, emission, quantum yield); assay type: physicochemical; conditions: for ε (extinction coefficient): in M-1·cm-1 (unit assumed); for ϕfl × ε (fluorescence brightness): in M^-1 cm^-1 (unit assumed); for fluorescence quantum yield: Zn^2+-bound state
Procedure: as §1

[5] = pH sensitivity of ZIGIR fluorescence; assay type: physicochemical; conditions: same Zn^2+ level
Procedure: as §1, with “The pH was controlled with 10 mM pH buffers including chloroacetic acid (pH 3.1), acetate (pH 4.1 and 5.0), 2-morpholinoethanesulfonic acid (MES, pH 6.14), HEPES (pH 7.5) and N-cyclohexyl-2-aminoethanesulfonic acid (CHES, pH 9.4).” left out

COc1ccc(N(CC(=O)O)CC(=O)O)c(OCCOc2cc(-c3c4cc(F)c(=O)cc-4oc4cc(O)c(F)cc34)ccc2NCC(=O)O)c1 [FluoZin-3]
Zn^2+ response (fold change) [1]: >100× | Kd [1]: 15 nM

Cc1cc2c(c(CN(Cc3ccccn3)Cc3cnccn3)c1)OC1(CC2)C(C)c2ccccc2N1C (centres unmarked) [SpiroZin2]
Zn^2+ response (fold change) [1]: 8× | Kd [1]: 3.6 nM

CN=c1ccc2c(-c3ccc(NCCN(CCc4ccccn4)Cc4ccccn4)cc3C(=O)O)c3ccc(NC)cc3oc-2c1 [ZIGIR-1]
selectivity of fluorescence response for Zn^2+ [2]: selective for Zn^2+ | FC (fold change in fluorescence brightness ϕfl×ε from Zn^2+-free to Zn^2+-bound state) [3]: 50 | fluorescence enhancement upon Zn^2+ binding [3]: 50 fold | Kd ([3]; 100 mM HEPES pH 7.4): 290 nM | absorption maximum [4]: ~520 nm | bathochromic shift in absorption maximum from Zn^2+-free to Zn^2+-bound state [4]: 4 nm | λabd^max ([4]; Zn^2+ bound): 521 nm | λem^max ([4]; Zn^2+ bound): 543 nm | ϕfl (fluorescence quantum yield) ([4]; Zn^2+ bound): 0.30 | ε (extinction coefficient) ([4]; Zn^2+ bound): 112,000 | ϕfl × ε (fluorescence brightness) ([4]; Zn^2+ bound): 33,600 | λabd^max ([4]; Zn^2+ free): 517 nm | λem^max ([4]; Zn^2+ free): 547 nm | ϕfl (fluorescence quantum yield) ([4]; Zn^2+ free): 0.008 | ε (extinction coefficient) ([4]; Zn^2+ free): 85,200 | ϕfl × ε (fluorescence brightness) ([4]; Zn^2+ free): 682 | fluorescence quantum yield [4]: 30% | fluorescence signal at pH 7.5 versus pH 5.0 [5]: essentially the same fluorescence signal

CCN(CC)c1ccc2c(-c3ccc(NCCN(CCc4ccccn4)Cc4ccccn4)cc3C(=O)[O-])c3ccc(=[N+](CC)CC)cc-3oc2c1 [ZIGIR-3]
absorption maximum [4]: around 555 nm | emission maximum [4]: ~580 nm | fluorescence quantum yield [4]: 18%

COc1cc(O)c(-c2nc3c(CNCc4ccccn4)cccc3o2)cc1OC [ZINbo-5]
Kd [1]: 2.2 nM
